Results on 1 compound are retold here after patent US12329753B2, “Phosphodiesterase inhibitor treatment” (Cyrano Therapeutics, Inc., priority 2008, dated 2025).

One series concerns cAMP. Put plainly: Parotid saliva cAMP, 96 plate spectrophotometric assay. In kind it is in vivo, human. How it is done:
Parotid saliva was collected from each patient by application of a Lashley cup over Stensen's duct with lingual stimulation by placement of concentrated lemon juice. Saliva was collected in plastic tubes and stored at −20° C. until assayed. cAMP and cGMP were measured in saliva by a sensitive 96 plate spectrophotometric assay (R&D Systems, Minneapolis, MN).
All patients were placed in a fixed design open label clinical trial with treatment with oral theophylline. Treatment consisted of fixed treatment periods of two-eight months with sequential doses of the drug at 200 mg, 400 mg and 600 mg. At termination of each of these intervals, patients returned to study site for reevaluation. At the end of each interval subjective responses to treatment were measured with a modification of the 0-100 scale previously used (vs). […] Theophylline was assayed by a fluorescence polarization assay (Abbott, Chicago, IL), as previously described.
Data for the cyclic nucleotides from these 31 patients was not analyzed until the entire study of the 312 patients in Example 1 was assembled and analyzed in its entirety. […] The two patient groups were also analyzed post hoc with respect to type of smell loss and etiology of smell loss.

The test system of another series is patients with hyposmia. The experiment in a line: Side effects of intranasal theophylline. The following applies: intranasal 20 μg per naris once a day. It counts as in vivo, human.
The test system of another series is asthmatic patients. The experiment in a line: sGaw after inhaled dry powder in asthmatic patients, single blind study (Examples 5, 6). In kind it is in vivo, human. The following applies: dry powder 2 mg inhaled. How it is done:
To test this theory, asthmatic patients are enrolled in a dose escalating single blind study. On arrival to the clinic, subjects are allowed to rest for 20 minutes before baseline measurements of FEV1 (six recordings) and sGaw (five recordings) are made. Subjects receive a dry powder dispenser loaded with a dose of 2 mg theophylline or a dry powder carrier. […] After each inhalation, measurements of sGaw are made at 1, 3, 5, 10, 15, 20, 25, and 30 minutes.
On completion of the last recording, subjects inhale a 200 μg dose of salbutamol from a metered inhaler and a further measurement of sGaw is made after 15 minutes. Subjects are also monitored for coughing and are questioned about the taste of the drug.
Asthmatic patients are enrolled in a dose escalating single blind study. On arrival to the clinic, subjects are allowed to rest for 20 minutes before baseline measurements of FEV1 (six recordings) and sGaw (five recordings) are made. Subjects receive a dry powder dispenser loaded with a dose of 1 mg IBMX formulated as a dry powder or a dry powder carrier. […] After each inhalation, measurements of sGaw are made at 1, 3, 5, 10, 15, 20, 25, and 30 minutes.
On completion of the last recording, subjects inhale a 200 μg dose of salbutamol from a metered inhaler and a further measurement of sGaw mad after 15 minutes. Subjects are also be monitored for coughing and are questioned about the taste of the drug.

For series [1] the following is noted: asthma therapy; cited from earlier work.

Procedure for patients with hyposmia: The patients inserted a plastic syringe containing 0.4 ml of fluid (20 μg theophylline) into each naris once a day. […] The drug dose was delivered through a plastic nipple which fitted snugly onto the filled syringe which was attached directly to the nipple. One nipple was supplied for each set of two syringes in each application kit. The patient fitted the nipple on one syringe, placed the nipple securely into the lower naris and injected the contents of the syringe directly into the lower vault of one naris accompanied by a modest inhalation. This technique was then used for the second syringe used for the other naris. The patients were instructed to administer the drug either seated or standing with their head in an erect, vertical position.

For `Cn1c(=O)c2[nH]cnc2n(C)c1=O` [theophylline], in the series on cAMP (oral 400 mg, patients with improved smell function (12), mean ± SEM), the “parotid saliva cAMP” value amounted to 1.22 ± 0.33 pmol/mL. The “change of saliva cAMP” value in the series with cAMP (oral 200, 400, 600 mg, unimproved patients) is “essentially no change”. In the series with patients with hyposmia, the side effects entry was “no side effects”. Also, the “increase in sGaw versus 200 μg salbutamol” value with asthmatic patients was “comparable to that produced by salbutamol”. In the series with asthmatic patients (after 30 minutes), the “sGaw above baseline measurement” value worked out at 20%. Moreover, the “therapeutic range for plasma concentrations” value in series [1] is 10 to 20 mg/L.
